Biological target: catalytic domain of human Bub1 (amino acids 704-1085) (Homo sapiens (Human), UniProt O43683)
Experiment: Bub1 kinase assay (TR-FRET)
Type: biochemical
Conditions: 10 μM ATP, 1 μM peptide substrate, recombinant catalytic domain of human Bub1, read-out: Bub1 kinase assay median IC50
Text: Bub1-inhibitory activities of compounds described in the present invention were quantified using a time-resolved fluorescence energy transfer (TR-FRET) kinase assay which measures phosphorylation of the synthetic peptide Biotin-Ahx-VLLPKKSFAEPG (C-terminus in amide form), purchased from e.g. Biosyntan (Berlin, Germany) by the (recombinant) catalytic domain of human Bub1 (amino acids 704-1085), expressed in Hi5 insect cells with an N-terminal His6-tag and purified by affinity- (Ni-NTA) and size exclusion chromatography.
In a typical assay 11 different concentrations of each compound (0.1 nM, 0.33 nM, 1.1 nM, 3.8 nM, 13 nM, 44 nM, 0.15 μM, 0.51 μM, 1.7 μM, 5.9 μM and 20 μM) were tested in duplicate within the same microtiter plate. To this end, 100-fold concentrated compound solutions (in DMSO) were previously prepared by serial dilution (1:3.4) of 2 mM stocks in a clear low volume 384-well source microtiter plate (Greiner Bio-One, Frickenhausen, Germany), from which 50 nl of compounds were transferred into a black low volume test microtiter plate from the same supplier. Subsequently, 2 μl of Bub1 (the final concentration of Bub1 was adjusted depending on the activity of the enzyme lot in order to be within the linear dynamic range of the assay: typically ˜200 ng/ml were used) in aqueous assay buffer [50 mM Tris/HCl pH 7.5, 10 mM magnesium chloride (MgCl2), 200 mM potassium chloride (KCl), 1.0 mM dithiothreitol (DTT), 0.1 mM sodium ortho-vanadate, 1% (v/v) glycerol, 0.01% (w/v) bovine serum albumine (BSA), 0.005% (v/v) Trition X-100 (Sigma), 1× Complete EDTA-free protease inhibitor mixture (Roche)] were added to the compounds in the test plate and the mixture was incubated for 15 min at 22° C. to allow pre-equilibration of the putative enzyme-inhibitor complexes before the start of the kinase reaction, which was initiated by the addition of 3 μl 1.67-fold concentrated solution (in assay buffer) of adenosine-tri-phosphate (ATP, 10 μM final concentration) and peptide substrate (1 μM final concentration). The resulting mixture (5 μl final volume) was incubated at 22° C. during 60 min., and the reaction was stopped by the addition of 5 μl of an aqueous EDTA-solution (50 mM EDTA, in 100 mM HEPES pH 7.5 and 0.2% (w/v) bovine serum albumin) which also contained the TR-FRET detection reagents (0.2 μM streptavidin-XL665 [Cisbio Bioassays, Codolet, France] and 1 nM anti-phosho-Serine antibody [Merck Millipore, cat. #35-002] and 0.4 nM LANCE EU-W1024 labeled anti-mouse IgG antibody [Perkin-Elmer, product no. AD0077, alternatively a Terbium-cryptate-labeled anti-mouse IgG antibody from Cisbio Bioassays can be used]). The stopped reaction mixture was further incubated 1 h at 22° C. in order to allow the formation of complexes between peptides and detection reagents. Subsequently, the amount of product was evaluated by measurement of the resonance energy transfer from the Eu-chelate-antibody complex recognizing the Phosphoserine residue to the streptavidin-XL665 bound to the biotin moiety of the peptide. To this end, the fluorescence emissions at 620 nm and 665 nm after excitation at 330-350 nm were measured in a TR-FRET plate reader, e.g. a Rubystar or Pherastar (both from BMG Labtechnologies, Offenburg, Germany) or a Viewlux (Perkin-Elmer) and the ratio of the emissions (665 nm/622 nm) was taken as indicator for the amount of phosphorylated substrate. The data were normalised using two sets of control wells for high- (=enzyme reaction without inhibitor=0%=Minimum inhibition) and low- (=all assay components without enzyme=100%=Maximum inhibition) Bub1 activity. IC50 values were calculated by fitting the normalized inhibition data to a 4-parameter logistic equation (Minimum, Maximum, IC50, Hill; Y=Max+(Min−Max)/(1+(X/IC50)Hill)).

catalytic domain of human Bub1 (amino acids 704-1085), sequence (O43683 704-1085): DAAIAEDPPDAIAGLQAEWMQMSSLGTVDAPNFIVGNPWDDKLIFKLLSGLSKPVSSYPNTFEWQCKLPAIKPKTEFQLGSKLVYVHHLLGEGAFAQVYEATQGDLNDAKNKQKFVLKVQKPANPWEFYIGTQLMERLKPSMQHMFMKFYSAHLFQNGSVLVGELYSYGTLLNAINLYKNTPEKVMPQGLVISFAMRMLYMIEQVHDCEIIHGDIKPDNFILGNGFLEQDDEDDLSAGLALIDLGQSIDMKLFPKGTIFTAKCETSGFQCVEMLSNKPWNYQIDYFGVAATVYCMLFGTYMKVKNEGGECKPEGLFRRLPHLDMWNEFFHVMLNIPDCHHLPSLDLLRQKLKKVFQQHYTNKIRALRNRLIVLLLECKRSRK

Row | SMILES | IC50
1 | CN1CCc2[nH]c(-c3ccnc(NC(=O)[C@H]4C[C@H]4F)c3)c(Nc3ccccc3)c2C1=O (relative stereo) [Example 25, rel-(1R,2R)-2-fluoro-N-{4-[5-methyl-4-oxo-3-(phenylamino)-4,5,6,7-tetrahydro-1H-pyrrolo[3,2-c]pyridin-2-yl]pyridin-2-yl}cyclopropanecarboxamide] | 17.1 nM
2 | Cc1cnccc1-c1[nH]c2c(c1Nc1ccccc1)C(=O)NCC2 [Example 3, 2-(3-methylpyridin-4-yl)-3-(phenylamino)-1,5,6,7-tetrahydro-4H-pyrrolo[3,2-c]pyridin-4-one] | 244 nM
3 | CCn1c2c(c(Nc3ccccc3)c1-c1ccncc1)C(=O)NCC2 [Example 5, 1-ethyl-3-(phenylamino)-2-(pyridin-4-yl)-1,5,6,7-tetrahydro-4H-pyrrolo[3,2-c]pyridin-4-one] | 35.1 nM
4 | O=C1NCCc2[nH]c(-c3ccncc3)c(Nc3ccc(F)cc3)c21 [Example 7, 3-[(4-fluorophenyl)amino]-2-(pyridin-4-yl)-1,5,6,7-tetrahydro-4H-pyrrolo[3,2-c]pyridin-4-one] | 19.8 nM
5 | Nc1cc(-c2[nH]c3c(c2Nc2ccccc2)C(=O)NCC3)ccn1 [Example 8, 2-(2-aminopyridin-4-yl)-3-(phenylamino)-1,5,6,7-tetrahydro-4H-pyrrolo[3,2-c]pyridin-4-one] | 138 nM
6 | COCCn1c2c(c(Nc3ccccc3)c1-c1ccncc1)C(=O)NCC2 [Example 9, 1-(2-methoxyethyl)-3-(phenylamino)-2-(pyridin-4-yl)-1,5,6,7-tetrahydro-4H-pyrrolo[3,2-c]pyridin-4-one] | 354 nM
7 | CC(C)C(=O)Nc1cc(-c2[nH]c3c(c2Nc2ccccc2)C(=O)N(C(=O)C(C)C)CC3)ccn1 [Example 10, 2-methyl-N-{4-[5-(2-methylpropanoyl)-4-oxo-3-(phenylamino)-4,5,6,7-tetrahydro-1H-pyrrolo[3,2-c]pyridin-2-yl]pyridin-2-yl}propanamide] | 319 nM
8 | CCn1c2c(c(Nc3ccc(F)cc3)c1-c1ccncc1)C(=O)NCC2 [Example 11, 1-ethyl-3-[(4-fluorophenyl)amino]-2-(pyridin-4-yl)-1,5,6,7-tetrahydro-4H-pyrrolo[3,2-c]pyridin-4-one] | 64.5 nM
9 | CCn1c2c(c(Nc3ccccc3)c1-c1ccnc(C)c1)C(=O)NCC2 [Example 13, 1-ethyl-2-(2-methylpyridin-4-yl)-3-(phenylamino)-1,5,6,7-tetrahydro-4H-pyrrolo[3,2-c]pyridin-4-one] | 972 nM
10 | CC(=O)Nc1cc(-c2[nH]c3c(c2Nc2ccccc2)C(=O)NCC3)ccn1 [Example 14] | 18.3 nM
11 | CCn1c2c(c(Nc3ccccc3)c1-c1ccnc(NC(C)=O)c1)C(=O)NCC2 [Example 15, N-{4-[1-ethyl-4-oxo-3-(phenylamino)-4,5,6,7-tetrahydro-1H-pyrrolo[3,2-c]pyridin-2-yl]pyridin-2-yl}acetamide] | 79 nM
12 | O=c1[nH]ccc2[nH]c(-c3ccncc3F)c(Nc3ccccc3)c12 [Example 16, 2-(3-fluoropyridin-4-yl)-3-(phenylamino)-1,5-dihydro-4H-pyrrolo[3,2-c]pyridin-4-one] | 19.1 nM
13 | CCNC(=O)Nc1cc(-c2[nH]c3c(c2Nc2ccccc2)C(=O)NCC3)ccn1 [Example 19, 1-ethyl-3-{4-[4-oxo-3-(phenylamino)-4,5,6,7-tetrahydro-1H-pyrrolo[3,2-c]pyridin-2-yl]pyridin-2-yl}urea] | 19.5 nM
14 | CN1CCc2[nH]c(-c3ccnc(N)c3)c(Nc3ccccc3)c2C1=O [Example 21, 2-(2-aminopyridin-4-yl)-5-methyl-3-(phenylamino)-1,5,6,7-tetrahydro-4H-pyrrolo[3,2-c]pyridin-4-one] | 170 nM
15 | COc1cnccc1-c1[nH]c2c(c1Nc1ccccc1)C(=O)N(C)CC2 [Example 22, 2-(3-methoxypyridin-4-yl)-5-methyl-3-(phenylamino)-1,5,6,7-tetrahydro-4H-pyrrolo[3,2-c]pyridin-4-one] | 26.9 nM
16 | CC(=O)Nc1cc(-c2[nH]c3c(c2Nc2ccccc2)C(=O)N(C)CC3)ccn1 [Example 23] | 23.2 nM
17 | CN1CCc2[nH]c(-c3ccncc3OCCO)c(Nc3ccccc3)c2C1=O [Example 26, 2-[3-(2-hydroxyethoxy)pyridin-4-yl]-5-methyl-3-(phenylamino)-1,5,6,7-tetrahydro-4H-pyrrolo[3,2-c]pyridin-4-one] | 47.6 nM
18 | CN1CCc2[nH]c(-c3ccncc3OCC3CC3)c(Nc3ccccc3)c2C1=O [Example 27, 2-[3-(cyclopropylmethoxy)pyridin-4-yl]-5-methyl-3-(phenylamino)-1,5,6,7-tetrahydro-4H-pyrrolo[3,2-c]pyridin-4-one] | 21.7 nM
19 | CCCOc1cnccc1-c1[nH]c2c(c1Nc1ccccc1)C(=O)N(C)CC2 [Example 28, 5-methyl-3-(phenylamino)-2-(3-propoxypyridin-4-yl)-1,5,6,7-tetrahydro-4H-pyrrolo[3,2-c]pyridin-4-one] | 51.6 nM
20 | CN1CCc2[nH]c(-c3ccncc3OCC(F)F)c(Nc3ccccc3)c2C1=O [Example 29, 2-[3-(2,2-difluoroethoxy)pyridin-4-yl]-5-methyl-3-(phenylamino)-1,5,6,7-tetrahydro-4H-pyrrolo[3,2-c]pyridin-4-one] | 70.8 nM

These reach a lower IC50. Values come first.

Row | IC50 | SMILES
21 | 15.4 nM | Cc1cc(-c2[nH]c3c(c2Nc2ccccc2)C(=O)NCC3)ccn1 [Example 12, 2-(2-methylpyridin-4-yl)-3-(phenylamino)-1,5,6,7-tetrahydro-4H-pyrrolo[3,2-c]pyridin-4-one]
22 | 15.3 nM | CN1CCc2[nH]c(-c3ccnc(NC(=O)C4CC4)c3)c(Nc3ccccc3)c2C1=O [Example 24]
23 | 14.6 nM | CCn1c2c(c(Nc3ccccc3)c1-c1ccncc1)C(=O)NC(C)(C)C2 [Example 4, 1-ethyl-6,6-dimethyl-3-(phenylamino)-2-(pyridin-4-yl)-1,5,6,7-tetrahydro-4H-pyrrolo[3,2-c]pyridin-4-one]
24 | 13.4 nM | CN1CCc2[nH]c(-c3ccncc3)c(Nc3ccccc3)c2C1=O [Example 20, 5-methyl-3-(phenylamino)-2-(pyridin-4-yl)-1,5,6,7-tetrahydro-4H-pyrrolo[3,2-c]pyridin-4-one]
25 | 11.6 nM | CC1(C)Cc2[nH]c(-c3ccncc3)c(Nc3ccccc3)c2C(=O)N1 [Example 1, 6,6-dimethyl-3-(phenylamino)-2-(pyridin-4-yl)-1,5,6,7-tetrahydro-4H-pyrrolo[3,2-c]pyridin-4-one]
26 | 11.5 nM | O=C1NCCc2[nH]c(-c3ccncc3F)c(Nc3ccccc3)c21 [Example 18, 2-(3-fluoropyridin-4-yl)-3-(phenylamino)-1,5,6,7-tetrahydro-4H-pyrrolo[3,2-c]pyridin-4-one]
27 | 10.9 nM | CC(C)(C)OC(=O)N1CCc2[nH]c(-c3ccncc3)c(Nc3ccccc3)c2C1=O [Example 6, tert-butyl 4-oxo-3-(phenylamino)-2-(pyridin-4-yl)-1,4,6,7-tetrahydro-5H-pyrrolo[3,2-c]pyridine-5-carboxylate]
28 | 8.7 nM | CN1CCc2[nH]c(-c3ccncc3F)c(Nc3ccccc3)c2C1=O [Example 17, 2-(3-fluoropyridin-4-yl)-5-methyl-3-(phenylamino)-1,5,6,7-tetrahydro-4H-pyrrolo[3,2-c]pyridin-4-one]
29 | 7.89 nM | O=C1NCCc2[nH]c(-c3ccncc3)c(Nc3ccccc3)c21 [Example 2, 3-(phenylamino)-2-(pyridin-4-yl)-1,5,6,7-tetrahydro-4H-pyrrolo[3,2-c]pyridin-4-one]

From patent US10428063B2 (Bayer Pharma Aktiengesellschaft, priority 2015, dated 2019)
